# Laboratory results reported in PubChem BioAssay AID330 (DTP/NCI, 2004).
# Values joined by “and” are separate entries in the source; they are usually repeats but may differ in a detail not shown here. Equal entries are not always repeated. Inconclusive results and toxic doses are left out.
# Tested on: P388 leukemia ip, CD2F1 mice, survival T/C
# Assay: NCI In Vivo Anticancer Drug Screen. Data for tumor model P388 Leukemia (intraperitoneal) in CD2F1 (CDF1) mice
# Conditions: endpoint: median survival time, higher = longer survival
# Summary of the method: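 Mice carrying the transplanted tumor received test compound or vehicle. Survival was recorded in each group, and the value is the treated-group measurement divided by that of the vehicle-treated control group.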
# [1] = dose: 50.0 mg/kg/injection, schedule: Q01DX005 (ip), vehicle: saline with Tween-80
# [2] = dose: 100.0 mg/kg/injection, schedule: Q01DX005 (ip), vehicle: saline with Tween-80
# [3] = dose: 200.0 mg/kg/injection, schedule: Q01DX005 (ip), vehicle: saline with Tween-80
# [4] = dose: 60.0 mg/kg/injection, schedule: Q01DX005 (ip), vehicle: saline with Tween-80
# [5] = dose: 120.0 mg/kg/injection, schedule: Q01DX005 (ip), vehicle: saline with Tween-80
# [6] = dose: 240.0 mg/kg/injection, schedule: Q01DX005 (ip), vehicle: saline with Tween-80
# [7] = dose: 100.0 mg/kg/injection, schedule: Q04DX003 (ip), vehicle: saline with Tween-80
# [8] = dose: 400.0 mg/kg/injection, schedule: Q04DX003 (ip), vehicle: saline with Tween-80
# [9] = dose: 25.0 mg/kg/injection, schedule: Q01DX005 (ip), vehicle: saline with Tween-80
# [10] = dose: 50.0 mg/kg/injection, schedule: Q01DX009 (ip), vehicle: Klucel (hydroxypropylcellulose) (HPC)
# [11] = dose: 100.0 mg/kg/injection, schedule: Q01DX009 (ip), vehicle: Klucel (hydroxypropylcellulose) (HPC)
# [12] = dose: 50.0 mg/kg/injection, schedule: Q01DX005 (ip), vehicle: Klucel (hydroxypropylcellulose) (HPC)
# [13] = dose: 100.0 mg/kg/injection, schedule: Q01DX005 (ip), vehicle: Klucel (hydroxypropylcellulose) (HPC)
# [14] = dose: 200.0 mg/kg/injection, schedule: Q01DX005 (ip), vehicle: Klucel (hydroxypropylcellulose) (HPC)
# [15] = dose: 50.0 mg/kg/injection, schedule: Q01DX009 (ip), vehicle: saline with Tween-80
# [16] = dose: 100.0 mg/kg/injection, schedule: Q01DX009 (ip), vehicle: saline with Tween-80
# [17] = dose: 200.0 mg/kg/injection, schedule: Q01DX009 (ip), vehicle: saline with Tween-80
# [18] = dose: 6.25 mg/kg/injection, schedule: Q01DX005 (ip), vehicle: Klucel (hydroxypropylcellulose) (HPC)
# [19] = dose: 12.5 mg/kg/injection, schedule: Q01DX005 (ip), vehicle: Klucel (hydroxypropylcellulose) (HPC)
# [20] = dose: 25.0 mg/kg/injection, schedule: Q04DX003 (ip), vehicle: saline with Tween-80
# [21] = dose: 50.0 mg/kg/injection, schedule: Q04DX003 (ip), vehicle: saline with Tween-80
# [22] = dose: 100.0 mg/kg/injection, schedule: Q04DX003 (ip), vehicle: Klucel (hydroxypropylcellulose) (HPC)
# [23] = dose: 200.0 mg/kg/injection, schedule: Q04DX003 (ip), vehicle: Klucel (hydroxypropylcellulose) (HPC)
# [24] = dose: 400.0 mg/kg/injection, schedule: Q04DX003 (ip), vehicle: Klucel (hydroxypropylcellulose) (HPC)
compound,measurement,setting,value
CC(=O)O[C@@H]1C[C@H]2C(C)(C)C(=O)C=C[C@]2(C)[C@H]2CC[C@]3(C)C(=CC(=O)O[C@]3(O)c3ccoc3)[C@@]21C,T/C,"dose: 1.0 mg/kg/injection, schedule: Q01DX005 (ip), vehicle: Klucel (hydroxypropylcellulose) (HPC)",95 % of control
same,T/C,"dose: 2.0 mg/kg/injection, schedule: Q01DX005 (ip), vehicle: Klucel (hydroxypropylcellulose) (HPC)",100 % of control
same,T/C,"dose: 4.0 mg/kg/injection, schedule: Q01DX005 (ip), vehicle: Klucel (hydroxypropylcellulose) (HPC)",95 % of control
same,T/C,"dose: 8.0 mg/kg/injection, schedule: Q01DX005 (ip), vehicle: Klucel (hydroxypropylcellulose) (HPC)",95 % of control
COc1ccc(C(C)c2cc3c(cc2OCC(=O)O)OCO3)cc1 (configuration not stated),T/C,[1],105 % of control
same,T/C,[2],88 % of control
same,T/C,[3],90 % of control
O=C(Cc1ccc2c(c1)OCO2)c1ccc(O)cc1O,T/C,[4],99 % of control
same,T/C,[5],105 % of control
same,T/C,[6],98 % of control
NP1(Oc2ccc(F)cc2)=NP(N)(Oc2ccc(F)cc2)=NP(Oc2ccc(F)cc2)(Oc2ccc(F)cc2)=N1 (configuration not stated),T/C,[4],90 % of control
same,T/C,[5],96 % of control
same,T/C,[6],89 % of control
CCOC(OCC)c1ccc([N+](=O)[O-])cc1,T/C,[7],106 % of control
same,T/C,"dose: 200.0 mg/kg/injection, schedule: Q04DX003 (ip), vehicle: saline with Tween-80",100 % of control
same,T/C,[8],117 % of control
O=C1c2ccccc2C(=O)c2c(I)cccc21,T/C,[1],97 % of control
same,T/C,[2],97 % of control
CCOc1cc2c(cc1C(C)(C)c1ccccc1)OCO2,T/C,[1],99 % of control
same,T/C,[2],92 % of control
same,T/C,[3],96 % of control
Nc1nc(N)c(-c2cccc(Cl)c2)c(CBr)n1,T/C,"dose: 12.5 mg/kg/injection, schedule: Q01DX009 (ip), vehicle: saline with Tween-80",113 % of control
same,T/C,"dose: 25.0 mg/kg/injection, schedule: Q01DX009 (ip), vehicle: saline with Tween-80",114 % of control
c1c(-c2cc(C3CC3)[nH]n2)n[nH]c1C1CC1,T/C,"dose: 60.0 mg/kg/injection, schedule: Q01DX005 (ip), vehicle: saline",101 % of control
same,T/C,"dose: 120.0 mg/kg/injection, schedule: Q01DX005 (ip), vehicle: saline",97 % of control
same,T/C,"dose: 240.0 mg/kg/injection, schedule: Q01DX005 (ip), vehicle: saline",100 % of control
CN(C)c1ccc(C(=C(c2ccc(N(C)C)cc2)c2ccc(N(C)C)cc2)c2ccc(N(C)C)cc2)cc1,T/C,"dose: 12.5 mg/kg/injection, schedule: Q01DX005 (ip), vehicle: saline with Tween-80",96 % of control
same,T/C,[9],92 % of control
same,T/C,[1],89 % of control
Cc1ccc(NC(=S)N2CCCC2)cc1C,T/C,[10],100 % of control and 101 % of control
same,T/C,[11],109 % of control
same,T/C,"dose: 200.0 mg/kg/injection, schedule: Q01DX009 (ip), vehicle: Klucel (hydroxypropylcellulose) (HPC)",91 % of control and 98 % of control
Cc1c2ccncc2c(CN2C(=O)c3ccccc3C2=O)c2c3ccccc3n(C)c12,T/C,"dose: 12.5 mg/kg/injection, schedule: Q04DX002 (ip), vehicle: saline with Tween-80",102 % of control
same,T/C,"dose: 25.0 mg/kg/injection, schedule: Q04DX002 (ip), vehicle: saline with Tween-80",100 % of control
same,T/C,"dose: 50.0 mg/kg/injection, schedule: Q04DX002 (ip), vehicle: saline with Tween-80",98 % of control
same,T/C,"dose: 100.0 mg/kg/injection, schedule: Q04DX002 (ip), vehicle: saline with Tween-80",95 % of control
O=C(Cc1cc2c(cc1Br)OCO2)NCCc1ccc2c(c1)OCO2,T/C,"dose: 12.5 mg/kg/injection, schedule: Q01DX001 (ip), vehicle: saline + alcohol",99 % of control
same,T/C,"dose: 25.0 mg/kg/injection, schedule: Q01DX001 (ip), vehicle: saline + alcohol",98 % of control
same,T/C,"dose: 50.0 mg/kg/injection, schedule: Q01DX001 (ip), vehicle: saline + alcohol",105 % of control
CCCN(CCC)CC(C)(C)C(O)c1ccc(OC)c2ccccc12 (configuration not stated),T/C,[9],110 % of control
same,T/C,[1],108 % of control
O=C(Nc1ncn[nH]1)c1ccccc1O,T/C,[12],99 % of control
same,T/C,[13],91 % of control
same,T/C,[14],86 % of control
COc1ccc(-c2cc(-c3ccc(OC)cc3)nc(-c3ccc(OC)cc3)c2)cc1,T/C,[12],98 % of control
same,T/C,[13],94 % of control
same,T/C,[14],89 % of control
CCCCCOC(=O)CC(N)C(=O)OCCCCC (configuration not stated),T/C,[15],100 % of control
same,T/C,[16],100 % of control
same,T/C,[17],90 % of control
O=C(OCC1OC(n2cc(C(F)(F)F)c(=O)[nH]c2=O)CC1O)c1ccc([N+](=O)[O-])cc1 (configuration not stated),T/C,[18],110 % of control
same,T/C,[19],110 % of control
same,T/C,"dose: 25.0 mg/kg/injection, schedule: Q01DX005 (ip), vehicle: Klucel (hydroxypropylcellulose) (HPC)",115 % of control
same,T/C,[12],161 % of control
CCc1cnc(=S)n(-c2ccccc2)c1,T/C,"dose: 100.0 mg/kg/injection, schedule: Q01DX001 (ip), vehicle: saline with Tween-80",99 % of control
same,T/C,"dose: 200.0 mg/kg/injection, schedule: Q01DX001 (ip), vehicle: saline with Tween-80",95 % of control
O=S1(=O)CS(=O)(=O)OCCCO1,T/C,[18],151 % of control
same,T/C,[19],169 % of control
Cn1c2c(c(=O)n(C)c1=O)CS(=O)c1ccccc1N2 (configuration not stated),T/C,"dose: 25.0 mg/kg/injection, schedule: Q01DX005 (ip), vehicle: suspension in saline",103 % of control
same,T/C,"dose: 50.0 mg/kg/injection, schedule: Q01DX005 (ip), vehicle: suspension in saline",96 % of control
same,T/C,"dose: 100.0 mg/kg/injection, schedule: Q01DX005 (ip), vehicle: suspension in saline",96 % of control
same,T/C,"dose: 200.0 mg/kg/injection, schedule: Q01DX005 (ip), vehicle: suspension in saline",97 % of control
O=C(Nc1n[nH]c(NC(=O)C(F)(F)F)n1)C(F)(F)F,T/C,[12],103 % of control
same,T/C,[13],103 % of control
same,T/C,[14],100 % of control
CCCCCCCCCOCC(=O)OC,T/C,[15],105 % of control
same,T/C,[16],106 % of control
same,T/C,[17],101 % of control
O=S1(=O)CC(N2CCOCC2)C2=C(O1)c1ccccc1OCC2 (configuration not stated),T/C,[12],98 % of control
same,T/C,[13],97 % of control
same,T/C,[14],88 % of control
O=C(Nc1cc(Cl)c(Cl)cc1Cl)N1CCOCC1,T/C,[4],104 % of control
same,T/C,[5],105 % of control
same,T/C,[6],102 % of control
CNC(=O)Oc1cccc(NC(=S)SC)c1,T/C,"dose: 12.5 mg/kg/injection, schedule: Q04DX003 (ip), vehicle: saline with Tween-80",106 % of control
same,T/C,[20],104 % of control
same,T/C,[21],100 % of control
same,T/C,[7],104 % of control
C[Si](C)(C)N[Si](C)(C)C,T/C,[10],100 % of control
same,T/C,[11],102 % of control
CN(C)c1nc(N(C)C)nc([N+]23CN4CN(CN(C4)C2)C3)n1,T/C,[15],114 % of control
same,T/C,[16],108 % of control
same,T/C,[17],114 % of control
O=C(O)C(Cc1ccc(OC(=O)C(F)(F)F)cc1)NC(=O)C(F)(F)F (configuration not stated),T/C,[20],95 % of control
same,T/C,[21],100 % of control
same,T/C,[7],100 % of control and 101 % of control
same,T/C,[8],93 % of control
NNC(=O)C(=O)N/N=C(/CC1(O)C(=O)Nc2ccccc21)c1ccc([N+](=O)[O-])cc1 (configuration not stated),T/C,[1],103 % of control
same,T/C,[2],94 % of control
same,T/C,[3],90 % of control
Cc1ccc2[nH]c(C)c(C(=O)c3ccncc3)c2c1,T/C,[22],100 % of control
same,T/C,[23],100 % of control
same,T/C,[24],107 % of control
COC1=Nc2ccccc2N2CCN=C12,T/C,"dose: 12.5 mg/kg/injection, schedule: Q01DX009 (ip), vehicle: saline",86 % of control
same,T/C,"dose: 25.0 mg/kg/injection, schedule: Q01DX009 (ip), vehicle: saline",100 % of control
same,T/C,"dose: 50.0 mg/kg/injection, schedule: Q01DX009 (ip), vehicle: saline",100 % of control
Cc1cc(C)c(C#N)c(SSC(Cl)(Cl)Cl)n1,T/C,[1],96 % of control
same,T/C,[2],93 % of control
same,T/C,[3],91 % of control
O=c1c2ccccc2[nH]c2c(O)c3c(=O)c4ccccc4[nH]c3cc12,T/C,[22],102 % of control
same,T/C,[23],92 % of control
same,T/C,[24],102 % of control
